In paper PMC9024805, “Non-Effective Improvement of Absorption for Some Nanoparticle Formulations Explained by Permeability under Non-Sink Conditions” (Pharmaceutics, 2022):

Assays:
[1] = design: method as in PMID 33801447; settings: previous study ref 25; cited from earlier work
[2] = Permeability under sink conditions (previous study / calculated for Figure 11); format: in vitro ADME; settings: not told, given in Figure 11
Excerpt: To assess the impact of permeability under non-sink conditions, we compared it with that under sink conditions.

[3] = Solubility from concentrations in the donor chambers; settings: pH 6.5, 37 °C
Method: At 0, 30, 60, 120, 240 and 360 min, 100 μL of the acceptor chamber solution was withdrawn and diluted 2-fold. […] To measure the exact concentration in the donor chamber containing the nanosuspensions, the filtration method was applied according to a previous report [32]. Then, 100 μL of the filtered solution was diluted 2-fold. The sample concentration was determined by ultra-high-performance liquid chromatography (UHPLC).

[4] = design: method as in PMID 17694546; settings: cited from earlier work

Row | Papp [2] [nm/s] | Effect of nanonization / particle size on solubility [3] | Structure (SMILES) | Papp under sink conditions [1] [nm/s] | Papp using PAMPA relative to that of griseofulvin [4]
1 | 2500 | not improved by nanonization | COC1=CC(=O)C[C@@H](C)[C@]12Oc1c(Cl)c(OC)cc(OC)c1C2=O [griseofulvin] | 2470 | 
2 |  |  | CC(=O)[C@H]1CC[C@H]2[C@@H]3CCC4=CC(=O)CC[C@]4(C)[C@H]3CC[C@]12C [progesterone] |  | 2–3 times
